Article PMC5438364, “A broad-spectrum bactericidal lipopeptide with anti-biofilm properties” (Scientific Reports, 2017)
Where a SMILES comes first, the peptide text is derived from it. [ ]: non-standard residue; d: D form. The star is where a group is joined. Myristoyl = CCCCCCCCCCCCCC(=O)*; 12Ado = NCCCCCCCCCCCC(=O)O

How the values were obtained:
[1] = Hydrophobicity by C18 RP-HPLC elution; type: physicochemical; details: chromatographic, RP-HPLC C18 (Vydac), flow 2 ml/min, linear acetonitrile gradient 1%/min
Protocol: OAKs were synthesized in-house (433 A Peptide Synthesizer; Applied Biosystems, Foster City, CA, USA) by the solid-phase method using 9-fluorenylmethyloxycarbonyl (Fmoc) active-ester chemistry on 4-methylbenzhydrylamine (MBHA) resin. OAKs were then deprotected and cleaved from the resin using trifluoroacetic acid:H2O (95:5) and purified to >95% chromatographic homogeneity by reverse phase high performance liquid chromatography (RP-HPLC) using C18 column (Vydac), a flow rate of 2 ml/min and a linear acetonitrile gradient of 1%/min (Alliance; Waters, Milford, MA, USA). Peaks identity was verified by mass-spectrometry (Xevo G2 Tof; Waters, Milford, MA, USA). Purified OAKs were then lyophilized and kept as dry powder at −20 °C.

S. mutans = experiment: microbe, parasite or virus in culture; type: cell-based, Streptococcus mutans
Protocol: (§1) Staphylococci, Bacilli, Escherichia, Pseudomonas, Acinetobacter, Salmonella and Klebsiella species were grown in Luria Bertani broth (LB; 5 gr/l NaCl, 5 gr/l yeast extract, 10 gr/l tryptone). Enterococci and E. coli ML-35p were grown in Tryptic Soy Broth (TSB). Listeria and Streptococci were grown in Brain Heart Infusion (BHI). All bacteria were grown over-night at 37 °C with shaking. S. mutans 35668 plated on BHI agar for enumeration was grown for 48 hr. S. mutans UA159 was grown in 5% CO2 enriched atmosphere. Fusobacterium and Porphyromonas were grown in Wilkins-Chalgren growth medium and an anaerobic atmosphere.
(§2) Minimal inhibitory concentration (MIC) was determined using the microdilution assay. Mid-log-phase bacteria at 5 × 10^5 CFU/ml were incubated in a 96-well plate with serial two-fold dilutions of the tested compound for 18–24 hr at 37 °C (final volume of 200 µl). O.D. at 620 nm was measured (Synergy HT, BioTek Instruments, Winooski, VT, USA), and the MIC was determined as the lowest concentration for which no increase in O.D. was detected.

S. aureus 29213 = type: cell-based, Staphylococcus aureus
Protocol: as §2

E. coli 25922 = type: cell-based, Escherichia coli
Protocol: as §2

[2] = test system: Gram-negative bacteria (GNB); type: cell-based; details: 24 GNB strains (seven species)
Text: (§3) Gram-negative bacteria tested were: ATCC strains Escherichia coli 25922, 43894, Pseudomonas aeruginosa 27853, 9027, Acinetobacter baumannii 19606, A. caloaceticus 31299, Salmonella Typhimurium 14028, Fusobacterium nucleatum 23726, Porphyromonas gingivalis 53977, clinical isolates E. coli 14182, 14384, U-16327, U-16329, P. aeruginosa 1278, Klebsiella pneumoniae 1287, K2–224, C2, A. baumannii 1279, 1280, 1281, F. nucleatum PK 1594, the engineered E. coli ML-35p and the isogenic K-12 pair AG100, AG100a (ΔacrAB). Dental related bacteria (generous gift of Prof. Doron Steinberg and Gilad Bachrach from the Hebrew University of Jerusalem) appear in bold characters.
as §1, §2

Pseudomonas = type: cell-based; details: 3 strains; microdilution, LB, 18–24 hr, 37 °C; average of at least 2 independent experiments in duplicate
Text: as §3, §1, §2

E. coli = type: cell-based, Escherichia coli; details: 48 h
Protocol: as §1
(§4) Minimal inhibitory concentration (MIC) was determined using the microdilution assay. […] O.D. at 620 nm was measured (Synergy HT, BioTek Instruments, Winooski, VT, USA), and the MIC was determined as the lowest concentration for which no increase in O.D. was detected.

Porphyromonas = type: cell-based, Porphyromonas gingivalis; details: 48 h
Text: as §3
as §1, with “S. mutans UA159 was grown in 5% CO2 enriched atmosphere. Fusobacterium and Porphyromonas were grown in Wilkins-Chalgren growth medium and an anaerobic atmosphere.” left out
as §4

[3] = test system: cultivable oral microflora; experiment: Bacterial killing in whole human saliva; type: cell-based; details: within two minutes of exposure, 37 °C
Protocol: Bactericidal kinetics in saliva was assessed as follows. Whole saliva was pooled from two-three healthy volunteers at a time, after obtaining their informed consent. To test for specific activity against S. mutans, saliva was centrifuged for 5 min at 15,000 g and 4 °C, and the supernatant was spiked with 1 × 10^7 CFU/ml of mid-log-phase S. mutans 35668. Otherwise, activity against natural oral microflora was also performed on whole saliva. Saliva was mixed with the tested compound, incubated at 37 °C with shaking, and aliquots were taken at t = 0, 2, 5 and 10 min. Aliquots were subjected to serial 10-fold dilutions in saline and plated on BHI agar for enumeration.

GPB and GNB = experiment: Effect observed at low concentrations, analog series; type: cell-based; details: summary of this and previous studies
Protocol: Table 2 Modulating biophysical properties of a core sequence by conjugating an N-terminal acyl. | column: Effect observed at low concentrations (<3 µM)

E. coli ML-35p = experiment: Outer and cytoplasmic membrane permeabilization (nitrocefin, ONPG, EtBr); type: cell-based, Escherichia coli; details: ONPG and ethidium bromide (CM), 30 min, 37 °C
Protocol: Cytoplasmic membrane permeation to ethidium bromide (EtBr) was evaluated as follows: Mid-log-phase bacteria at 1 × 10^8 CFU/ml were centrifuged for 5 min at 15,000 g. Pellet was washed twice with PBS containing 0.5% glucose (pH = 7.4), suspended in the same buffer and incubated for 10 min at 37 °C with shaking. 180 µl of the bacterial suspension were mixed in a 96-well plate with 25 µl of the tested compound and EtBr (EtBr final concentration = 1 µg/ml) and fluorescence was recorded immediately (excitation: 535 nm, emission: 590 nm) for up to 30 min at 37 °C with shaking (Synergy HT, BioTek Instruments, Winooski, VT, USA).
Outer and cytoplasmic membrane permeation in Gram-negative bacteria was assessed using the engineered E. coli ML-35p by monitoring the chromogenic hydrolysis of two indicators: ortho-nitrophenyl-β-galactoside (ONPG) and nitrocefin. Mid-log-phase E. coli ML-35p were centrifuged for 5 min at 15,000 g and the supernatant was removed. Pellet was washed three times with sodium phosphate buffer (SPB; 10 mM NaH2PO4, pH = 7) and suspended in the same buffer (O.D. at 620 nm = 1). Bacteria were then 10-fold diluted into SPB containing 3% TSB. […] Hydrolysis of ONPG and nitrocefin was monitored immediately by recording the absorbance at 420 nm and 486 nm respectively, for 30 min at 37 °C with shaking (Synergy HT, BioTek Instruments, Winooski, VT, USA).

E. coli AG100A (ΔacrAB) = type: cell-based, Escherichia coli; details: efflux deletion-mutant AG100A
Text: as §3, §2

E. coli AG100 = type: cell-based, Escherichia coli; details: wild type AG100
Text: as §3, §2

CCCCCCCCCCCCCC(=O)N[C@@H](CCCCN)C(=O)N[C@@H](CCCCN)C(=O)NCCCCCCCCCCCC(=O)N[C@@H](CCCCN)C(N)=O [C14KKc12K] (Myristoyl-KK[12Ado]K-NH2)
H, hydrophobicity, defined as % acetonitrile eluent in C18 HPLC column [1]: 54%
MIC (S. mutans): 0.78 µM
MIC (S. aureus 29213): 3 µM
MIC (E. coli 25922): 6 µM
MIC50 [2]: 6 µM
MIC range (Pseudomonas): 6.25 to 12.5 µM
MIC E.c. (E. coli): 3.12 µM
MIC range (Porphyromonas): 3.12 µM
reduction of viability of cultivable oral microflora [3]: > 99%
Effect observed at low concentrations (<3 µM) (GPB and GNB): High efficacy in membranes disruption leading to a bactericidal mode of action in both GPB & GNB
concentration (MIC value) at which both OM and CM were permeabilized (E. coli ML-35p): 3 µM
MIC (E. coli AG100A (ΔacrAB)): 3 µM
MIC (E. coli AG100): 3 µM
